System: Plasmodium berghei
Assay: Luciferase/luciferin-expressing antifolate-resistant parasites were used to infect a culture of HepG2 cells that were pre-incubated with compounds. Infected hepatocytes emit light due to the luciferase reaction. Assay results are presented as the percent inhibition of light emission compared to control. […]
Format: functional
Settings: sporozoite; for IC50: read-out: LUCIFERASE INFECTION ASSAY - IC50; for IC90: read-out: LUCIFERASE INFECTION ASSAY - IC90

SMILES | IC50 [µM] | IC90 [µM]
COc1ccc(Cc2nnc(S)n2NC(=O)Nc2ccc(Cl)c(Cl)c2)cc1 | > 10 | > 10
C=CCn1c(SCc2cc([N+](=O)[O-])cc3c2OCOC3)nc2cc(C(=O)O)ccc2c1=O | 1.82 | 6.97
CN(C)c1nc(C=C(C#N)C#N)c(Cl)n1-c1ccc(F)cc1 | > 10 | > 10
O=C(Nc1nnc(C2CC2)s1)c1cccc(S(=O)(=O)N2CCc3ccccc32)c1 | > 10 | > 10
Cn1c(N)c(C(=O)COC(=O)C2(c3ccccc3F)CCCC2)c(=O)n(C)c1=O | > 10 | > 10
CN(C)c1ccc(/C=C/c2ccc3c4ccccc4ccc3[n+]2-c2ccccc2)cc1 | 1.07 | 1.23
C=CCn1c(SCC(=O)Nc2nnc(-c3ccccc3)o2)nc2cc(Cl)ccc2c1=O | > 10 | > 10
N#CC(C(=O)COC(=O)c1nc(-c2ccccc2)n(-c2ccccc2)n1)=C1Nc2ccccc2N1 | > 10 | > 10
Cc1ccc(-c2cs/c(=N\c3ccc(C)c(C)c3)n2/N=C/c2ccc(O)cc2O)cc1 | > 10 | > 10
CCOC(=O)c1c(NC(=O)C(C)OC(=O)c2ccccc2Sc2ccccc2C#N)sc2c1CCCC2 (configuration not stated) | > 10 | > 10
Cc1cc(C)c(C)c(S)c1C | > 10 | > 10
O=C(N/N=C/c1ccc([N+](=O)[O-])o1)c1ccc(CN2C(=O)c3cccc4cccc2c34)cc1 | > 10 | > 10
CCCCc1ccc(NC(=O)/C(C#N)=C/c2ccccc2Cl)cc1 | > 10 | > 10
CCCCOc1ccc(/C=N/Nc2ccc([N+](=O)[O-])cc2)cc1 | > 10 | > 10
Oc1c(C(c2ccc(Cl)cc2Cl)N2CCOCC2)ccc2cccnc12 (configuration not stated) | 4.36 | 8.77
CCn1c(-c2ccccc2)c(C(=O)COC(=O)c2c(NC(C)=O)sc3c2CCCC3)c2ccccc21 | > 10 | > 10
CCOC(=O)c1c(C)[nH]c(C(=O)C(C)Sc2nnc(-c3ccccc3)c(-c3ccccc3)n2)c1C (configuration not stated) | > 10 | > 10
COc1ccccc1NC(=O)c1ccc(NC(=O)Cn2ncc(Cl)c(Cl)c2=O)cc1 | 3.41 | 4.54
COc1ccc(S(=O)(=O)N(CC(=O)c2cc(C)n(-c3ccc(Cl)cc3)c2C)Cc2ccccc2)cc1 | > 10 | > 10

SMILES | IC50 [µM] | IC90 [µM]
N#CC(C(=O)COC(=O)c1cn(-c2ccccc2)nc1-c1ccccc1)=C1Nc2ccccc2N1 | > 10 | > 10
O=C(Nc1nc(-c2ccco2)c(-c2ccco2)s1)c1cnc(Cl)c(Cl)c1 | > 10 | > 10
O=C(Nc1nc2c(s1)CCCC2)c1cc(F)c(F)c(F)c1F | 0.081 | 0.624
Cc1nn(-c2cccc(C(F)(F)F)c2)c2sc(C(=O)NC(=S)N(C)C3CCCCC3)cc12 | 1.09 | 1.27
CCOc1cc(C(=O)N/N=C2/C(=O)N(C(C)C)c3ccccc32)cc(OCC)c1OCC | > 10 | > 10
Cn1c(CC(=O)NNC(=O)/C=C/c2cccc(C(F)(F)F)c2)nc2ccccc21 | 3.4 | 3.99
Cc1cc(C(=O)COC(=O)c2ccccc2OCC(=O)Nc2cccc(C(F)(F)F)c2)c(C)n1CC1CCCO1 (configuration not stated) | > 10 | > 10
CC1C/C(=C\c2ccco2)c2nc3ccccc3c(C(=O)OCC(=O)N3CC(=O)Nc4ccccc43)c2C1 (configuration not stated) | > 10 | > 10
O=C(/C=C/C1=C(N2CCOCC2)C(=C\c2ccc(Cl)cc2)/CC1)C(F)(F)F | > 10 | > 10
C=CCN(c1cccc(C(F)(F)F)c1)S(=O)(=O)c1cc(C(=O)Nc2ccc3c(c2)CCC3)ccc1Cl | > 10 | > 10
CC(C)c1nnc(SCC(=O)Nc2ccc([N+](=O)[O-])cc2)[nH]1 | > 10 | > 10
CCOc1ccc(-n2c(SCC(=O)N(C)Cc3ccccc3)nc3ccccc32)cc1 | > 10 | > 10
CC1CCc2nc3ccccc3c(C(=O)OC(C)C(=O)NCCC3=CCCCC3)c2C1 (configuration not stated) | > 10 | > 10
COc1ccc(-c2ccc(-c3nc4c(c(=O)[nH]c(=O)n4CC(C)C)n3CC(C)C)o2)c([N+](=O)[O-])c1 | > 10 | > 10
CN(CC(=O)Nc1ccc(Cl)c(C(F)(F)F)c1)Cc1ccc(O)c2ncccc12 | 0.0645 | 0.191
Cc1n[nH]c(=S)n1C1CCCCC1 | > 10 | > 10
Cc1ccc(N(CCC#N)C(=O)COC(=O)c2c3c(nc4ccccc24)/C(=C/c2c(F)cccc2Cl)CC3)cc1 | > 10 | > 10
Cc1c(-c2ccccc2)nc2ccccc2c1C(=O)OCC(=O)c1cc(C)n(Cc2ccco2)c1C | > 10 | > 10
CC(=O)c1c(C)[nH]c(C(=O)OC(c2ccccc2)c2ccc(Cl)cc2)c1C (configuration not stated) | > 10 | > 10

SMILES | IC50 [µM] | IC90 [µM]
CCCCn1c(SCc2cc(=O)oc3cc(C)c(C(C)C)cc23)nc2cc(S(N)(=O)=O)ccc21 | > 10 | > 10
CCN(c1ccccc1)S(=O)(=O)c1ccc(C(=O)N2CCN(c3cccc(C)c3C)CC2)cc1 | 4.15 | 5.07
COCC(C)n1c(C)cc(C(=O)CSc2ncnc3sc(C)c(C)c23)c1C (configuration not stated) | > 10 | > 10
C=CCn1c(SC(C(=O)c2c[nH]c3ccccc23)c2ccccc2)nc2ccccc2c1=O (configuration not stated) | 8.28 | > 10
CC1CCc2c(sc3nc(CN4CCOCC4)nc(N4CCN(S(=O)(=O)/C=C/c5ccccc5)CC4)c23)C1 (configuration not stated) | > 10 | > 10
O=C(c1ccccc1)C(Sc1nnc(Cc2cccs2)n1CCc1ccccc1)c1ccccc1 (configuration not stated) | > 10 | > 10
C=C(C)C(=O)Oc1ccc(Oc2c(F)c(F)c(-c3c(F)c(F)c(Oc4ccc(OC(=O)C(=C)C)cc4)c(F)c3F)c(F)c2F)cc1 | > 10 | > 10
Cc1cc(Nc2nc3ccccc3nc2N2CCN(/C=C/c3ccccc3)CC2)n(-c2ccccc2)n1 | > 10 | > 10
CC(C)(C)c1cnnn1-c1ccc(C(=O)/C=C/c2ccccc2)cc1 | > 10 | > 10
O=C(CSc1nnc(Cc2cccs2)n1C1CCCCC1)c1c[nH]c2ccccc12 | > 10 | > 10
Cc1ccc(C(C)C)c(OCc2ccc(C(=O)N/N=C/c3cc(C)n(Cc4ccco4)c3C)cc2)c1 | > 10 | > 10
Brc1ccc(C2C(c3nc4ccccc4[nH]3)=C(c3ccccc3)N=C(c3ccccc3)C2c2nc3ccccc3[nH]2)cc1 (configuration not stated) | > 10 | > 10
O=C(OCC(=O)N1N=C(c2ccc(Cl)cc2)CC1c1ccco1)c1[nH]nc2ccccc12 (configuration not stated) | > 10 | > 10
O=C(CC(NC(=O)c1ccccc1Cl)c1ccccc1)Oc1ccc2c(c1)OCO2 (configuration not stated) | > 10 | > 10
COc1ccc(-c2nnc(SCC(=O)c3[nH]c(C)c(C(C)=O)c3C)n2C2CCCCC2C)cc1 (configuration not stated) | > 10 | > 10
C[C@@H](C(=O)NNC(=O)c1cccc(S(=O)(=O)N2CCOCC2)c1)N1C(=O)C2CC=CCC2C1=O (some centres not stated) | > 10 | > 10
COc1ccc(S(=O)(=O)N(C)C)cc1NC(=O)CSc1cc(C)c2ccccc2n1 | > 10 | > 10
Cc1cc(OCc2nc3ccc(Cl)cc3[nH]2)c(C(C)C)cc1Cl | > 10 | > 10

— ChEMBL document CHEMBL4483862, “Open-source discovery of chemical leads for next-generation chemoprotective antimalarials” (2018)
